Test results from patent US9606124B2, “Methods of detecting and treating stem-cell containing solid tumors” (The Regents of The University of Michigan, priority 2008, dated 2017).
“Also recorded” adds a separate entry of the source. Like-named read-outs stand apart in the source and are kept apart here.

Legend:
[1] = test system: SUM159 cell line; assay: MTT assay, cell growth / cell viability of SUM159 cells
Experimental: After 4 days of treatment, the effect on cell growth was analyzed using the MTT assay (FIG. 5A) and on the cancer stem cell population using the ALDEFLUOR assay (FIG. 5B).

[2] = test system: FOXO3A; assay: Immunohistochemistry of FOXO3A in xenotransplants; set-up: species or system NOD/SCID mice; settings: mouse, in vivo
Experimental: (§1) Immunostaining. For immunofluorescent staining, sorted CXCR1-positive cells were fixed with 95% methanol at −20° C. for 10 minutes. Cells were rehydrated in PBS and incubated with respective antibodies at room temperature for 1 hour. Primary antibodies used were P-FAK (1:50, Cell Signaling Technology), P-AKT (1:300, Cell Signaling Technology), and FOXO3a (1:250, Cell Signaling Technology). Slides were then washed and incubated 30 minutes with PE conjugated secondary antibodies (Jackson labs). The nuclei were counterstained with DAPI/antifade (Invitrogen) and coverslipped. […] Immunohistochemistry for the detection of ALDH1 (1:100, BD biosciences), P-FAK, P-AKT, FOXO3a expression was done on paraffin section (Ginestier et al. Am. J Pathol. 161:1223-1233, herein incorporated by reference in its entirety). Staining was done utilizing the Histostainplus kit (Zymed laboratories). Diaminobenzidine (DAB) or 3-amino-9-ethylcarbazole (AEC) was used as chromogen and sections were counterstained with hematoxylin.

[3] = test system: ALDEFLUOR-positive population of HCC1954; assay: ALDEFLUOR assay on HCC1954 cells in vitro; format: cell-based, human; settings: three days, repertaxin 100 nM, antibodies 10 μg/ml
Experimental: ALDEFLUOR assay. […] In order to eliminate cells of mouse origin from the xenotransplanted tumors, cell population was stained with an anti-H2Kd antibody (BD biosciences, 1/200, 20 min on ice) followed by staining with a secondary antibody labeled with phycoerythrin (PE) (Jackson labs, 1/250, 20 min on ice).

[4] = phase I and phase II clinical trials, cited from earlier work
[5] = test system: CXCR1-positive population of SUM159 cells; assay: Flow cytometry of the CXCR1-positive population of SUM159 cells; format: cell-based, human; settings: repertaxin, repertaxin plus anti-FAS-ligand, FAS agonist
Experimental: Flow cytometry analysis. […] CD95/FAS staining were performed utilizing an anti-CD95 labeled APC (1:20, BD biosciences). […] Fresh cells were stained with 1 μg/ml PI (Sigma) for 5 min for viability.

[6] = test system: HCC1954 cells; assay: Metastasis formation after intracardiac injection of HCC1954 cells (bioluminescence); format: in vivo, NOD/SCID mice; settings: 250,000 cells intracardiac, repertaxin 15 mg/kg s.c. twice a day 28 days vs saline
Experimental: Intracardiac inoculation. […] Twelve hours after intracardiac injections, mice were begun on twice per day repertaxin injections or saline for the controls. Bioluminescence detection. Baseline bioluminescence was assessed before inoculation and each week thereafter inoculations. Bioluminescence detection procedures was performed as previously described ([…] et al. Cancer Res. 69:1302-1313, herein incorporated by reference in its entirety). Normalized photon flux represents the ratio of the photon flux detected each week after inoculations and the photon flux detected before inoculation.

[7] = test system: phospho-FAK and phospho-AKT; assay: Immunofluorescence staining of p-FAK and p-AKT in SUM159 cells; format: cell-based, human; settings: for phospho-FAK and phospho-AKT expression (immunofluorescence): sorted CXCR1-positive cells
Experimental: The non-treated SUM159 cells presented 80% of cells positive in the cytoplasm for FOXOA3. […] The change in FOXOA3 cellular localation from the cytoplasm to the nucleus indicates an activation of FOXOA3 protein.
as §1

[8] = test system: FAK Tyr397 and AKT Ser473 phosphorylation; assay: Western blotting of FAK/AKT activation in HCC1954; format: cell-based, human; settings: 100 nM, two days
Experimental: Western blotting. Cells were lysed in a laemmli buffer and loaded onto SDS-polyacrylamide gels. Blots were incubated with the respective primary antibodies diluted in TBST (containing 0.1% Tween20 and 2% BSA) either overnight at 4o, or 2 hours at room temperature. Blots were washed and incubated with appropriate secondary antibodies (GE Healthcare, UK) and detected using SuperSignal West Pico Chemiluminescent Substrate (Pierce).

[9] = test system: SUM159 cells; assay: TUNEL assay, apoptotic cells; format: cell-based, human; settings: 4 days of treatment
Text: (§2) Cell viability. […] After one day, treatment with repertaxin was started. […]. […] Nuclei were counterstained with DAPI/antifade (Invitrogen).

[10] = test system: MDA-MB-453 cells; assay: MTT assay, cell viability of MDA-MB-453 cells; format: cell-based, human; settings: MDA-MB-453 (PTEN mutation), repertaxin 100 nM
Text: as §2

## CC(C)Cc1ccc([C@@H](C)C(=O)NS(C)(=O)=O)cc1 [Repertaxin]
[1]; Homo sapiens, SUM159, 120 h, read-out: cells remaining viable / cell viability (MTT)
  viability at 0.1 µM: 3%
[1]; SUM159, repertaxin 100 nM
  cell viability over time (one, three, five days): loss of cell viability beginning three days after treatment; also recorded: decrease in cell viability was observed after 3 days of treatment
[2]
  nuclear FOXO3A in treated tumors: detected
[3]
  ALDEFLUOR-positive population: significant reduction
[4]
  toxicity in clinical studies: lack of toxicity
[4]; listed as Repartaxin
  toxicity in clinical studies: little toxicity
[5]
  percent of CXCR1-positive cells: massive decrease
[6]
  metastasis formation (normalized photon flux): significantly reduced metastasis formation
[6]; listed as repertaxin
  metastasis formation (normalized photon flux): statistically significant decrease in metastasis formation
[7]; SUM159, 100 nM, 2 days
  p-FAK and p-AKT (immunofluorescence): complete inactivation
[7]
  phospho-FAK and phospho-AKT expression (immunofluorescence): disappearance of phospho-FAK
[7]; listed as repertaxin
  phospho-FAK and phospho-AKT expression (immunofluorescence): dramatic decrease of phospho-FAK and phospho-AKT expression
[8]
  FAK Tyr397 and AKT Ser473 phosphorylation (western blot): decrease in FAK Tyr397 and AKT Ser473 phosphorylation
[8]; listed as repertaxin
  FAK Tyr397 and AKT Ser473 phosphorylation (western blot): decrease in FAK Tyr^397 and AKT Ser^473 phosphorylation
[9]
  apoptotic cells (TUNEL): 36%
[10]
  cell viability (MTT): no effect; also recorded: did not have any effect on cell viability
[10]; listed as repertaxin
  cell viability (MTT): did not effect the viability
